Results as given in paper PMC5735979, “Total Coumarins from Hydrangea paniculata Show Renal Protective Effects in Lipopolysaccharide-Induced Acute Kidney Injury via Anti-inflammatory and Antioxidant Activities” (Frontiers in Pharmacology, 2017).

Key:
[1] = Pharmacokinetics study after single oral dose of HP; type: in vivo, C57BL/6 mice; conditions: male, C57BL/6, mouse, in vivo, mice, n = 5
Experimental: All of the animals were fasted for 12 h before receiving HP and were then allowed to eat for 4 h after administration. The dosing solutions used for the animal studies were prepared by dissolving the required amounts of HP in distilled water. […] The plasma was separated and stored at 2–8°C until analysis. […] Louis, MO, USA) and then mixed with 180 μL of acetonitrile (Merck, Darmstadt, Germany) to precipitate protein. After centrifugation, aliquots (10 μL each) of the supernatant were used for analysis. […] The mobile phase consisted of solvent A [0.1% formic acid (Dikma Technologies, Inc., CA, USA) in water] and solvent B [0.1% formic acid in methanol (Merck)]. The analytes were eluted at a flow rate of 0.2 mL/min, with the following gradient elution: from 0 to 0.6 min, 20% B; linear increase to 95% B in 0.2 min; 95% B for 4 min, decrease to 20% B in 0.2 min; and stabilization at initial conditions for 6 min. The mass spectrometer was set for multiple reaction monitoring and was operated in a positive-ion mode with an electrospray ionization source. Nitrogen was used as the curtain gas and the collision gas. The ion-spray voltage was set at 5,500 V, and the gas temperature at 500°C.

[2] = system: cationized BSA-induced membranous glomerulitis; parameters: method as in Zhang et al., 2013; conditions: ref Zhang et al., 2013; cited from earlier work
[3] = system: streptozotocin-induced diabetic nephropathy; parameters: method as in Zhang et al., 2012; conditions: ref Zhang et al., 2012; cited from earlier work
[4] = plasma, single oral dose of 50 mg/kg HP

`O=c1ccc2ccc(O[C@@H]3O[C@H](CO)[C@@H](O)[C@H](O)[C@H]3O)cc2o1` [Skimmin, skimmin] showed a concentration at 0.08 h ([1]; 0.08 h after single oral dose of 50 mg/kg HP, mean ± SD, read-out: Blood drug concentration) of 7.5 ± 2.94 µM, a concentration at 0.25 h ([1]; 0.25 h after single oral dose of 50 mg/kg HP, mean ± SD, read-out: Blood drug concentration) of 14.2 ± 3.71 µM and a concentration at 0.5 h ([1]; 0.5 h after single oral dose of 50 mg/kg HP, mean ± SD, read-out: Blood drug concentration) of 12.6 ± 2.12 µM. The concentration at 1 h ([1]; 1 h after single oral dose of 50 mg/kg HP, mean ± SD, read-out: Blood drug concentration) was 7.41 ± 1.53 µM, the concentration at 1.5 h ([1]; 1.5 h after single oral dose of 50 mg/kg HP, mean ± SD, read-out: Blood drug concentration) was 4.44 ± 0.89 µM and the concentration at 2 h ([1]; 2 h after single oral dose of 50 mg/kg HP, mean ± SD, read-out: Blood drug concentration) was 3.64 ± 0.94 µM. It also gave a concentration at 3 h ([1]; 3 h after single oral dose of 50 mg/kg HP, mean ± SD, read-out: Blood drug concentration) of 2.37 ± 3.51 µM, a concentration at 4 h ([1]; 4 h after single oral dose of 50 mg/kg HP, mean ± SD, read-out: Blood drug concentration) of 1.16 ± 1.11 µM and a concentration at 8 h ([1]; 8 h after single oral dose of 50 mg/kg HP, mean ± SD, read-out: Blood drug concentration) of 0.17 ± 0.22 µM. The concentration at 12 h ([1]; 12 h after single oral dose of 50 mg/kg HP, mean ± SD, read-out: Blood drug concentration) was 0.05 ± 0.02 µM, the half-life ([1]; elimination half-life, plasma, single oral dose of 50 mg/kg HP) was 1.55 h and the AUC(0-inf) [1, 4] was 23.4 µM·h. The AUC(0-t) [1, 4] was 23.3 µM·h, the Cmax [1, 4] was 14.2 µM and the Tmax [1, 4] was 0.25 h. The MRT last ([1]; plasma, single oral dose of 50 mg/kg HP, read-out: MRT(0−t)) was 1.75 h, the MRT inf ([1]; plasma, single oral dose of 50 mg/kg HP, read-out: MRT(0−∞)) was 1.81 h and the “progression of cationized BSA-induced membranous glomerulitis” value [2] was “could slow the progression”. For the same compound, the “progression of streptozotocin-induced diabetic nephropathy” value [3] was “could slow the progression”.
